Tests used:
[1] = molecular target: T1, human μ opiate receptor (Homo sapiens, UniProt P35372); experiment: Affinity for the human μ opiate receptor ([3H]-naloxone displacement, CHO-K1 receptor membrane preparation, SPA); format: binding; conditions: test concentration of 1 μM
T1 construct: purchased PerkinElmer Life Sciences, Zaventem, Belgium RB-HOM; host or cells: CHO-K1 cells (membrane preparation)
Method in brief: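 At 1 μmol/l, compounds were scored for % displacement of 1 nmol/l [3H]-naloxone from CHO-K1-expressed human μ opiate receptor in a homogeneous SPA format (90 min, room temperature).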

[2] = molecular target: T2, serotonin (5-HT) reuptake (Rattus norvegicus, UniProt P31652); experiment: Inhibition of serotonin (5HT) reuptake in synaptosomes from rat brain; format: biochemical; conditions: test concentration of 10 μM
T2 construct: synaptosomes are freshly isolated from areas of the rat brain; from tissue; host or cells: rat brain synaptosomes (P2 fraction)
T2 sequence (P31652 whole entry): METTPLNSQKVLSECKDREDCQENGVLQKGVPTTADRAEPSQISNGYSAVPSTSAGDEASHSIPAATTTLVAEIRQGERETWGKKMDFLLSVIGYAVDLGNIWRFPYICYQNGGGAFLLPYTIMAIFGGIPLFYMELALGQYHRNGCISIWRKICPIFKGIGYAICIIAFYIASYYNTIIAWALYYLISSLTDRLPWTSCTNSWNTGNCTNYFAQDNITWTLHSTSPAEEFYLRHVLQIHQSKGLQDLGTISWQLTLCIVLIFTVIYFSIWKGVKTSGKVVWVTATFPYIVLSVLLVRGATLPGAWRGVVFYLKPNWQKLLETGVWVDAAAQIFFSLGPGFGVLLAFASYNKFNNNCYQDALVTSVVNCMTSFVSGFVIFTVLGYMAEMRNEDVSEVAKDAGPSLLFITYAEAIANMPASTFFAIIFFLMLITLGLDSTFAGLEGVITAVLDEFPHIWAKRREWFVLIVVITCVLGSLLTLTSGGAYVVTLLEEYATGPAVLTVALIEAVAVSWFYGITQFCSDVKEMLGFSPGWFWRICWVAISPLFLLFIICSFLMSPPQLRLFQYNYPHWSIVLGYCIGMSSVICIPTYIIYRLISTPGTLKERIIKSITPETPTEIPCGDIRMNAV
Method in brief: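 Compounds screened at 10 μM and reported as percent inhibition of serotonin uptake. Uptake measured in a freshly prepared P2 synaptosomal fraction from rat brain.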

T1 sequence (P35372 whole entry): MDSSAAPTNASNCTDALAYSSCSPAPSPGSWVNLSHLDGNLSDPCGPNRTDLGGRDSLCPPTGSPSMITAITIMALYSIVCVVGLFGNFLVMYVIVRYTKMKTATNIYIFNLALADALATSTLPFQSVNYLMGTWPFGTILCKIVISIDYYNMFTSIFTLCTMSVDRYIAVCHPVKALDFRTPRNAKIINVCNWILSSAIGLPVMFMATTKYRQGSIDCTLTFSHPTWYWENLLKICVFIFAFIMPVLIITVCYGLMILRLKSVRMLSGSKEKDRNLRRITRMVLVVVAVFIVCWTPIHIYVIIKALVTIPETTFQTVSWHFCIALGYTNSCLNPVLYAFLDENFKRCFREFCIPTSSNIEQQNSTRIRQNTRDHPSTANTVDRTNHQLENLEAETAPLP

Compound	μ (binding on the μ opioid receptor, % inhibition) [1] [%]	5-HT (inhibition of reuptake of serotonin, % inhibition) [2] [%]
CN(C)C(c1ccc(F)cc1)C1CCC(NC(=O)COCCN(C)S(=O)(=O)c2c(Cl)cccc2Cl)CC1 (centres unmarked) [Example 363]	59	73
CN(C)C(c1cccc(F)c1)C1CCC(NC(=O)COCCN2CCN(S(=O)(=O)c3ccccc3)CC2)CC1 (centres unmarked) [Example 364]	58	95
COc1cc(C)c(S(=O)(=O)N2CCC(OCC(=O)NC3CCC(C(c4ccc(F)cc4)N(C)C)CC3)C2)c(C)c1C (centres unmarked) [Example 365]	49	90
COc1cc(C)c(S(=O)(=O)N2CCN(CCOCC(=O)NCC3CCC(C(c4ccc(F)cc4)N(C)C)CC3)CC2)c(C)c1C (centres unmarked) [Example 366]	55	96
COc1ccc(S(=O)(=O)N2CCCCC2COCC(=O)NCC2CCC(C(c3ccc(Cl)cc3)N(C)C)CC2)cc1OC (centres unmarked) [Example 367]	60	89
CN(C)C(c1ccc(F)cc1)C1CCC(CCNC(=O)COCCN(C)S(=O)(=O)c2cccc(C(F)(F)F)c2)CC1 (centres unmarked) [Example 368]	61	95
CN(C)C(c1ccc(F)cc1)C1CCC(NC(=O)COC2CCN(S(=O)(=O)c3ccc(Cl)cc3)C2)CC1 (centres unmarked) [Example 370]	59	83
Cc1ccc(S(=O)(=O)N2CCC(OCC(=O)NC3CCC(C(c4ccc(F)cc4)N(C)C)CC3)C2)cc1 (centres unmarked) [Example 371]	57	85
COc1cc(C)c(S(=O)(=O)N(CCOCC(=O)NC2CCC(C(c3cccc(F)c3)N(C)C)CC2)Cc2ccccc2)c(C)c1 (centres unmarked) [Example 372]	59	89
COc1ccc(S(=O)(=O)N2Cc3ccccc3CC2COCC(=O)NCC2CCC(C(CCc3ccccc3)N(C)C)CC2)cc1 (centres unmarked) [Example 373]	62	85
COc1ccc(S(=O)(=O)N2Cc3ccccc3CC2COCC(=O)NCCC2CCC(C(c3ccc(Cl)cc3)N(C)C)CC2)cc1 (centres unmarked) [Example 374]	59	90
CN(C)C(c1ccc(Cl)cc1)C1CCC(CCNC(=O)COC2CCN(S(=O)(=O)c3ccccc3)C2)CC1 (centres unmarked) [Example 375]	53	88
CN(C)C(c1cccc(F)c1)C1CCC(CCNC(=O)COC2CCN(S(=O)(=O)c3ccccc3)C2)CC1 (centres unmarked) [Example 376]	62	88
CN(C)C(c1ccc(F)cc1)C1CCC(CCNC(=O)COCCN(C)S(=O)(=O)c2ccc(Cl)cc2)CC1 (centres unmarked) [Example 377]	59	88
COc1cc(C)c(S(=O)(=O)N(C)CCOCC(=O)NCCC2CCC(C(c3ccc(Cl)cc3)N(C)C)CC2)c(C)c1 (centres unmarked) [Example 378]	58	83
COc1ccc(S(=O)(=O)N(C)CCOCC(=O)NCC2CCC(C(c3ccc(Cl)cc3)N(C)C)CC2)cc1OC (centres unmarked) [Example 379]	45	81
CN(C)C(c1ccc(F)cc1)C1CCC(NC(=O)COC2CCN(S(=O)(=O)c3ccc(F)cc3)C2)CC1 (centres unmarked) [Example 381]	54	79
CN(C)C(c1ccc(F)cc1)C1CCC(NC(=O)COCCN(C)S(=O)(=O)c2c(Cl)cc(Cl)cc2Cl)CC1 (centres unmarked) [Example 382]	60	96
COc1ccc(S(=O)(=O)N2CCCCC2CCOCC(=O)NCCC2CCC(C(c3ccc(Cl)cc3)N(C)C)CC2)cc1 (centres unmarked) [Example 383]	59	94
CN(C)C(c1ccc(Cl)cc1)C1CCC(CNC(=O)COC2CCN(S(=O)(=O)c3ccc(Cl)cc3)C2)CC1 (centres unmarked) [Example 384]	55	87
CN(C)C(c1ccc(F)cc1)C1CCC(CCNC(=O)COCCN(C)S(=O)(=O)c2c(Cl)cc(Cl)cc2Cl)CC1 (centres unmarked) [Example 386]	63	98
COc1cc(C)c(S(=O)(=O)N2CCN(CCOCC(=O)NCCC3CCC(C(c4ccc(F)cc4)N(C)C)CC3)CC2)c(C)c1C (centres unmarked) [Example 387]	53	95

Compound	μ (binding on the μ opioid receptor, % inhibition) [1] [%]	5-HT (inhibition of reuptake of serotonin, % inhibition) [2] [%]
COc1cc(C)c(S(=O)(=O)N(CCOCC(=O)NCC2CCC(C(c3cccc(F)c3)N(C)C)CC2)Cc2ccccc2)c(C)c1 (centres unmarked) [Example 388]	65	91
COc1ccc(S(=O)(=O)N2Cc3ccccc3CC2COCC(=O)NCCC2CCC(C(c3ccc(F)cc3)N(C)C)CC2)cc1 (centres unmarked) [Example 389]	58	93
CN(C)C(c1ccc(F)cc1)C1CCC(CNC(=O)COCCN(C)S(=O)(=O)c2cccc(C(F)(F)F)c2)CC1 (centres unmarked) [Example 390]	55	90
CN(C)C(c1ccc(F)cc1)C1CCC(CNC(=O)COC2CCN(S(=O)(=O)c3ccc(Cl)cc3Cl)C2)CC1 (centres unmarked) [Example 391]	56	85
COc1cc(C)c(S(=O)(=O)N(C)CCOCC(=O)NCCC2CCC(C(c3ccc(F)cc3)N(C)C)CC2)c(C)c1 (centres unmarked) [Example 392]	57	89
Cc1cc(C)c(S(=O)(=O)N2CCC(OCC(=O)NCC3CCC(C(c4ccc(Cl)cc4)N(C)C)CC3)C2)c(C)c1 (centres unmarked) [Example 393]	55	70
CN(C)C(c1ccc(Cl)cc1)C1CCC(CNC(=O)COC2CCN(S(=O)(=O)c3ccc(F)cc3)C2)CC1 (centres unmarked) [Example 394]	56	93
CN(C)C(c1ccc(Cl)cc1)C1CCC(CCNC(=O)COC2CCCN(S(=O)(=O)c3ccccc3)C2)CC1 (centres unmarked) [Example 395]	54	96
CCN(CCOCC(=O)NC1CCC(C(c2ccc(F)cc2)N(C)C)CC1)S(=O)(=O)c1c(C)cc(OC)c(C)c1C (centres unmarked) [Example 396]	60	90
COc1cc(C)c(S(=O)(=O)N2CCC(CCOCC(=O)NCCC3CCC(C(c4cccc(F)c4)N(C)C)CC3)CC2)c(C)c1C (centres unmarked) [Example 397]	67	93
COc1ccc(S(=O)(=O)N2CCCCC2CCOCC(=O)NCCC2CCC(C(c3ccc(F)cc3)N(C)C)CC2)cc1 (centres unmarked) [Example 398]	59	97
CN(C)C(c1ccc(F)cc1)C1CCC(CNC(=O)COCCN(C)S(=O)(=O)c2ccc(Cl)cc2)CC1 (centres unmarked) [Example 399]	52	89
CN(C)C(c1ccc(F)cc1)C1CCC(CNC(=O)COCCN(C)S(=O)(=O)c2ccc(F)cc2)CC1 (centres unmarked) [Example 400]	55	103
COc1ccc(S(=O)(=O)N(C)CCOCC(=O)NC2CCC(C(c3cccc(F)c3)N(C)C)CC2)cc1OC (centres unmarked) [Example 401]	49	99
CN(C)C(c1ccc(F)cc1)C1CCC(CNC(=O)COC2CCN(S(=O)(=O)c3cccc(C(F)(F)F)c3)C2)CC1 (centres unmarked) [Example 402]	53	77
COc1cc(C)c(S(=O)(=O)N2CCC(OCC(=O)NCC3CCC(C(c4ccc(Cl)cc4)N(C)C)CC3)C2)c(C)c1 (centres unmarked) [Example 403]	52	93
CN(C)C(c1ccc(F)cc1)C1CCC(CNC(=O)COCCN(C)S(=O)(=O)c2c(Cl)cc(Cl)cc2Cl)CC1 (centres unmarked) [Example 404]	53	96
COc1ccc(S(=O)(=O)N2CCCCC2COCC(=O)NCC2CCC(C(c3ccc(F)cc3)N(C)C)CC2)c(OC)c1 (centres unmarked) [Example 405]	52	89
CN(C)C(c1ccc(F)cc1)C1CCC(NC(=O)COCCN(C)S(=O)(=O)c2ccc(Cl)cc2)CC1 (centres unmarked) [Example 406]	51	93
CN(C)C(c1cccc(F)c1)C1CCC(CCNC(=O)COC2CCN(S(=O)(=O)c3ccc(F)cc3)C2)CC1 (centres unmarked) [Example 407]	54	95
CN(C)C(c1ccc(F)cc1)C1CCC(NC(=O)COC2CCN(S(=O)(=O)c3ccccc3)CC2)CC1 (centres unmarked) [Example 408]	48	93

Source: patent US8106055B2, “Substituted amide compounds” (Gruenenthal GmbH, priority 2007, dated 2012)
